One assay deals with Bacillus sp. WSHDZ-01. Put plainly: Fermentation of Bacillus sp. WSHDZ-01 with sodium hexametaphosphate added; extracellular catalase activity of the broth by catalase assay (Aebi). The class given is cell-based. Here is the method:
Fermentation Culture: the fermentation process was performed in a 3 liter (L) stirred fermenter (KFT-3L, Korea) with a working volume of 1.8 L. Above 12-h-old basic flask culture was added at a concentration of 5.0% (v/v) to 1.8 L fermentation medium, and incubated under a stepwise temperature control, in which the temperature was maintained at 37° C. for the first 10 hours, at 35° C. during 10-20 hours, and at 32° C. after 20 hours. The aeration rate was 1.0 (v/v/m) (volume of air per volume of culture per minute). The shaking speed was 400 rpm. The total fermentation period was 48 to 53 hours. Proteinase inhibitors can be added during this fermentation process as described below.
(§1) Catalase activity was measured using the method described by Aebi (Aebi HE. Catalase in vitro. Method Enzymol 1984; 105:121-6). Total reaction volume is 3 ml. 0.1 ml enzyme solution was added to 2.9 ml KH2PO4—K2HPO4 buffer (pH 7.0, 10 mM KH2PO4/50 mM K2HPO4, 0.45 g/L H2O2). Decomposition rate of H2O2 was measured at 240 nm using a UV-Vis spectrophotometer. One unit of catalase activity is defined as the amount of enzyme that decomposes 1 μmol H2O2 per min at pH 7.0, 25° C.
Bacillus sp. WSHDZ-01 with accession number CCTCC NO. M206062 was used to produce catalase. Bacillus sp. WSHDZ-01 grown on a slant culture was inoculated into 50 ml of liquid seed medium in a 250 ml culture flask and cultured at 37° C., 200 rpm for 12-14 hours. 6% above liquid seed culture (v/v) was added to 80 ml basic fermentation culture in a 500 ml culture flask, and incubate at 37° C., 200 rpm, for 36-40 hours.
the fermentation process was performed in a 3 L stirred fermenter (KFT-3L, Korea) with a working volume of 1.8 L. The 12-h-old basic flask culture was added at a concentration of 5.0% (v/v) to 1.8 L fermentation medium, and incubated under a stepwise temperature control, in which the temperature was maintained at 37° C. for the first 10 hours, at 35° C. during 10-20 hours, and at 32° C. after 20 hours. The aeration rate was 1.0 (v/v/m) (volume of air per volume of culture per minute). The shaking speed was 400 rpm. The total fermentation period was 48 to 53 hours.

The next assay relates to catalase. Put plainly: Storage stability of unpurified fermentation broth (remaining extracellular catalase activity). More on the design: species or system Bacillus sp. WSHDZ-01. Here is the method: as §1
The culturing of Bacillus sp. WSHDZ-01 was performed as described under control procedure with one modification, that is, 5 g/L sodium hexametaphosphate was added at 36 hours of fermentation.
After fermentation, unpurified fermentation broth was stored at 25° C. for 12 hours. […] The broth storage stability was improved by 28.3% under the procedure with sodium hexametaphosphate.

Setting [1] is: 1 g/L added at 30 hours of fermentation.
Where [2] appears, read: 3 g/L added at 36 hours of fermentation.
Setting [3] is: 5 g/L added at 36 hours of fermentation.
[4] abbreviates: 7 g/L added at 36 hours of fermentation.
The mark [5] stands for this setting: 10 g/L added at 40 hours of fermentation.

The structures appear in SMILES notation.

For the molecule `O=P1([O-])OP(=O)([O-])OP(=O)([O-])OP(=O)([O-])OP(=O)([O-])OP(=O)([O-])O1.[Na+].[Na+].[Na+].[Na+].[Na+].[Na+]` [sodium hexametaphosphate], the “Extracellular catalase activity of the fermentation broth” value is listed as 15700 U/mL with Bacillus sp. WSHDZ-01 (setting [1]); 18600 U/mL with Bacillus sp. WSHDZ-01 (setting [2]); 19200 U/mL with Bacillus sp. WSHDZ-01 (setting [3]); 19700 U/mL in the assay with Bacillus sp. WSHDZ-01 (setting [4]); 16900 U/mL with Bacillus sp. WSHDZ-01 (setting [5]). Further, the “increase of enzyme activity from that of the control procedure” value is given as 16.3% with Bacillus sp. WSHDZ-01 (setting [1]); 37.7% in the assay on Bacillus sp. WSHDZ-01 (setting [2]); 42.2% with Bacillus sp. WSHDZ-01 (setting [3]); 45.9% in the assay with Bacillus sp. WSHDZ-01 (setting [4]); 25.2% with Bacillus sp. WSHDZ-01 (setting [5]). The “percentage of remaining extracellular catalase activity of the stored fermentation broth” value with catalase (5 g/L added at 36 hours of fermentation, unpurified broth stored at 25° C. for 12 hours) came out at 84.4%. The “broth storage stability improved” value in the assay on catalase (5 g/L added at 36 hours, stored at 25° C. for 12 hours, versus control culture procedure (56.1%)) was 28.3%.

(Values after patent US8722364B2, “Method for increasing microbial catalase production” (Jiangnan University, priority 2011, dated 2014).)
